From patent publication US20220127297A1, “Novel Antibacterial 3"-Derivatives Of 4,6-Disubstituted 2,5-Dideoxystreptamine Aminoglycoside Antibiotics” (AGILeBiotics B.V., priority 2018, published 2022) come the findings set out here.

The MIC90 is an inhibitory concentration at the 90% level, which refers to growth in some studies and to a panel of isolates in others.

In this assay the test system is clinical isolates of multidrug-resistant Klebsiella pneumoniae (and ATCC43816). Kind of assay: MIC determination at Fidelta, clinical isolates. The assay is classed as cell-based. The note with it: Klebsiella pneumoniae. The source says: 3.4.2 MIC Determination at Fidelta (Croatia)
Tested reference compounds. Amikacin sulfate (Cat. No. 01693, Chem-Impex), Gentamicin sulfate (Cat. No. G4918, Sigma Aldrich), Ceftazidime Pentahydrate (Cat. No. 1098130, USP), Meropenem (Cat. No. 1392454, USP), Tobramycin (Cat. No. 1667508, USP).
Microbial strains. Klebsiella pneumoniae KP-1919 (abdomen), Klebsiella pneumoniae KP-1935 (urine), Klebsiella pneumoniae KP-1936 (abscess), Klebsiella pneumoniae KP-1937 (blood), Klebsiella pneumoniae KP-1942 (urine), Klebsiella pneumoniae KP-1944 (blood), Klebsiella pneumoniae KP-2027 (tracheal aspirate), Klebsiella pneumoniae KP-2029 (urine), Klebsiella pneumoniae KP-2030 (trachea), Klebsiella pneumoniae KP-2031 (skin), Klebsiella pneumoniae KP-2032 (urine), Klebsiella pneumoniae KP-2033 (urine), Klebsiella pneumoniae KP-2034 (urine), Klebsiella pneumoniae KP-2035 (urine), Klebsiella pneumoniae KP-2036 (urine), Klebsiella pneumoniae KP-2037 (urine), Klebsiella pneumoniae ATCC 43816, Pseudomonas aeruginosa PA-1948 (wound), Pseudomonas aeruginosa PA-1949 (urine), Pseudomonas aeruginosa PA-1950 (sputum), Pseudomonas aeruginosa PA-1952 (wound), Pseudomonas aeruginosa PA-1953 (urine), Pseudomonas aeruginosa PA-1954 (sputum), Pseudomonas aeruginosa PA-1967 (blood), Pseudomonas aeruginosa ATCC27853, Acinetobacter baumannii AB-1931 (urine), Acinetobacter baumannii AB-1932 (urine), Acinetobacter baumannii AB-2017 (bronchial aspirate), Acinetobacter baumannii AB-2018 (skin), Acinetobacter baumannii AB-2019 (bronchial aspirate), Acinetobacter baumannii AB-1964 (blood), Acinetobacter baumannii AB-2025 (skin), Acinetobacter baumannii AB-2026 (skin), Acinetobacter baumannii ATCC17978, methicillin-resistant Staphylococcus aureus MRSA-1995 (liquor), methicillin-resistant Staphylococcus aureus MRSA-1998 (wound), methicillin-resistant Staphylococcus aureus MRSA-1999 (skin), methicillin-resistant Staphylococcus aureus MRSA-2003 (wound), vancomycin-resistant Enterococcus faecium VRE-2005 (urine), vancomycin-resistant Enterococcus faecium VRE-2006 (urine), vancomycin-resistant Enterococcus faecium VRE-2007 (urine), vancomycin-resistant Enterococcus faecium VRE-2008 (urine), vancomycin-resistant Enterococcus faecium VRE-2009 (urine), vancomycin-resistant Enterococcus faecium VRE-2010 (urine), vancomycin-resistant Enterococcus faecium VRE-2011 (rectum), vancomycin-resistant Enterococcus faecium VRE-2012 (rectum), vancomycin-resistant Enterococcus faecium VRE-2013 (rectum).
Culture media and equipment. BBL™ Mueller Hinton Broth (REF 275730, Lot. 7009699, Becton Dickinson); Mueller Hinton Agar 2 (Ref. No. 97580-500G-F, Lot. No. BCBV4646, Sigma); Cellstar, 96-well plates, U-bottom (Cat. No. 650180, Lot. No. E14123EB, Greiner Bio-one); 96-well deep well plate, 1 mL (Cat. No. 278606, Nunc); Incubator (Binder); Laminar flow (Thermo Scientific); BioPhotometer (Eppendorf); DEN-1B (McFarland Densitometer, Biosan); McFarland standards (polymer microparticle suspension, Biosan).
Compound preparation. For testing, 5 mg/mL DMSO solutions of the test compounds and reference antibiotics were used. Out of these DMSO solutions, 43.5 μL was transferred to 1656.5 μL of MH media in a deep well plate. Out of these working solutions 100 μL was transferred to wells in the third column of 96-well plates. Plates are previously filled with 50 μL of MH media in all wells except for the wells in the third column. After compound and antibiotic addition, 50 μL was transferred from the third to the fourth column, then from the fourth to the fifth and so on. In this manner, the compounds and antibiotics were plated in 96-well plate in serial two-fold dilutions giving a final concentration range of 64-0.125 μg/mL.
Inoculum preparation. Designations used for clinical isolates were from Fidelta strain collection bank. Microorganisms used were all revived from skim milk storage at −70° C. by plating them on MH agar plates.

In brackets after ≈: the same amount, converted by molar mass.

As for `NC[C@H]1O[C@H](O[C@H]2[C@H](O)[C@@H](O[C@H]3O[C@H](CO)[C@@H](O)[C@H](N)[C@H]3O)[C@H](N)C[C@@H]2N)[C@H](N)C[C@@H]1O` [Tobramycin, tobramycin], the MIC90 was 0.125 µg/mL (≈ 0.267 µM) (ATCC43816); 32 µg/mL (≈ 68.4 µM) (ATCC43816, KP-1919, Abdomen/VIM, ESBL); 32 µg/mL (≈ 68.4 µM) (ATCC43816, KP-1935, Urine/ESBL, NDM); 16 µg/mL (≈ 34.2 µM) (ATCC43816, KP-1936, Abscess/NDM); over 64 µg/mL (ATCC43816, KP-1937, Blood/VIM, ESBL); 16 µg/mL (≈ 34.2 µM) (ATCC43816, KP-1942, Urine (catheter)/VIM). The MIC90 by setting is: (ATCC43816, KP-1944, Blood/NDM) 32 µg/mL (≈ 68.4 µM); (ATCC43816, KP-2027, Tracheal aspirate/ESBL, OXA-48, ColR) 16 µg/mL (≈ 34.2 µM); (ATCC43816, KP-2029, Urine/ESBL, OXA-48) 32 µg/mL (≈ 68.4 µM); (ATCC43816, KP-2030, Trachea/ESBL, OXA-48) 64 µg/mL (≈ 137 µM); (ATCC43816, KP-2031, Skin/ESBL, OXA-48) 32 µg/mL (≈ 68.4 µM); (ATCC43816, KP-2032, Urine/ESBL, OXA-48) 16 µg/mL (≈ 34.2 µM). Also, the MIC90 is over 64 µg/mL (ATCC43816, KP-2033, Urine/OXA-A8); 32 µg/mL (≈ 68.4 µM) (ATCC43816, KP-2034, Urine/ESBL, OXA-48); 64 µg/mL (≈ 137 µM) (ATCC43816, KP-2035, Urine/ESBL, OXA-48); 16 µg/mL (≈ 34.2 µM) (ATCC43816, KP-2036, Urine/ESBL); 16 µg/mL (≈ 34.2 µM) (ATCC43816, KP-2037, Urine/ESBL, OXA-48).
